The values below come from ChEMBL document CHEMBL2346623, “Deconstruction of sulfonamide inhibitors of the urotensin receptor (UT) and design and synthesis of benzylamine and benzylsulfone antagonists” (Bioorg Med Chem Lett, 2013).

SMILES strings stand for the structures.

Series [1] has as its target T1, Urotensin-2 receptor (Homo sapiens, UniProt Q9UKP6).
T1 sequence (Q9UKP6 whole entry): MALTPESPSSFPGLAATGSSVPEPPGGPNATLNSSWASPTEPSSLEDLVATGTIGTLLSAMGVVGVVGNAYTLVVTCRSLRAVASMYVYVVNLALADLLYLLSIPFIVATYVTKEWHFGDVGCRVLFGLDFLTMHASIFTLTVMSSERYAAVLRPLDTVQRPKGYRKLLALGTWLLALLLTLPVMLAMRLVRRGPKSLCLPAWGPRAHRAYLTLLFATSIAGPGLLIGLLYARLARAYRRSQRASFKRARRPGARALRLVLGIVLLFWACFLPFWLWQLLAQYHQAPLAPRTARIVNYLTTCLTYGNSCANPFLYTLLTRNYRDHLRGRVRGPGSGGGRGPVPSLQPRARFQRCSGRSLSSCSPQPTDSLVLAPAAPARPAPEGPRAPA
In words: Displacement of [125I]-U2 from human recombinant urotensin2 receptor expressed in human Chem-2 cells after 4 hrs by scintillation proximity assay. The series is classed as cell-based.

The target in series [2] is T1, Urotensin-2 receptor. In words: Antagonist activity at recombinant human urotensin2 receptor expressed in CHO cells assessed as inhibition of urotensin2-stimulated Ca2+ mobilization after 1 hr by FLIPR assay. The series is classed as functional, cell-based. In general terms: Calcium flux is commonly read through the fluorescence of an indicator in the cells.
Series [3] is described as follows: Drug metabolism in human liver microsomes relative to total liver blood flow. The series is classed as ADME, Microsome. Conditions: read-out: Drug metabolism. A general note: Liver microsomes are vesicles of endoplasmic reticulum, rich in cytochrome P450 enzymes.
The target of series [4] is T2, Urotensin-2 receptor (Rattus norvegicus, UniProt P49684).
T2 sequence (P49684 whole entry): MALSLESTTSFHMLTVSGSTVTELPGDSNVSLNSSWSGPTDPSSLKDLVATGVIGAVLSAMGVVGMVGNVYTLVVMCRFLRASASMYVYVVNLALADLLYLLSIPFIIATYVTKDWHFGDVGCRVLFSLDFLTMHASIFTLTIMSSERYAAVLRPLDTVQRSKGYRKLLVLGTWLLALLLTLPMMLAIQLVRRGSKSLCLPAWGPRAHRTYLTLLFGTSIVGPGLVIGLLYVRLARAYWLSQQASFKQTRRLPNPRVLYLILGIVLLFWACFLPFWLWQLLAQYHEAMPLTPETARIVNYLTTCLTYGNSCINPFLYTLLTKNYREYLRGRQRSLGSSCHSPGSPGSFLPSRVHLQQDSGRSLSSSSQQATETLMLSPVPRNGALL
In words: Antagonist activity at rat urotensin2 receptor assessed as inhibition of urotensin2-stimulated Ca2+ mobilization by cell-based assay. The series is classed as functional.

The nature of series [5]: Solubility of the compound at pH 4.5. The note with it: buffer. The series is classed as physicochemical.
Series [6] in a line: Solubility of the compound at pH 7.4. The series is classed as physicochemical. Conditions: buffer.
Series [7] concerns the target T3, Urotensin-2 receptor (Mus musculus, UniProt Q8VIH9).
T3 sequence (Q8VIH9 whole entry): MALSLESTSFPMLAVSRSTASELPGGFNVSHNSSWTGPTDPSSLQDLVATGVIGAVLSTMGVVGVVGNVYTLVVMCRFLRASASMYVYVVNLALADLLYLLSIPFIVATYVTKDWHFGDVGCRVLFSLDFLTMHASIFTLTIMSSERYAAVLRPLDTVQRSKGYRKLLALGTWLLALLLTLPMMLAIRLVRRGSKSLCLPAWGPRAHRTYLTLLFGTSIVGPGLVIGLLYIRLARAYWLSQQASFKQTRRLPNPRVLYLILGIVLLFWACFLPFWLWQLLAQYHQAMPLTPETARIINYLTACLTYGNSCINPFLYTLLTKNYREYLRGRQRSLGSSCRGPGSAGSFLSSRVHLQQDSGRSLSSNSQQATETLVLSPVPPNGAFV
The series can be described thus: Antagonist activity at mouse urotensin2 receptor assessed as inhibition of urotensin2-stimulated Ca2+ mobilization by cell-based assay. The series is classed as functional.

A short description of series [8]: Drug metabolism in rat liver microsomes relative to total liver blood flow. The series is classed as ADME, Microsome. The note with it: read-out: Drug metabolism.
The target in series [9] is T1, Urotensin-2 receptor. The series can be described thus: Displacement of [125I]-U2 from recombinant human urotensin2 receptor expressed in human U2OS cells after 30 mins by gamma counting analysis. The series is classed as cell-based. For orientation: In a radioligand displacement assay an active substance lowers the binding of a labelled ligand.
Series [10] has as its target T1, Urotensin-2 receptor. In words: Antagonist activity at recombinant human urotensin2 receptor expressed in CHO cells assessed as inhibition of urotensin2-stimulated Ca2+ mobilization incubated 10 mins prior to urotensin2 stimulation measured after 10 mins by fluorometric analysis. The series is classed as functional, cell-based.

Broadly, the IC50 is the concentration that gives 50% inhibition. For `COc1cc(Br)c(S(=O)(=O)Nc2ccc(Cl)c(O[C@@H]3CCN(C)C3)c2)cc1OC`, the IC50 on Urotensin-2 receptor [1] amounted to 23 nM; at Urotensin-2 receptor [2], 43 nM. Besides, the hepatic extraction ratio in series [3] was found to be 0.65.
In general, solubility refers to the concentration that dissolves in the medium under given conditions. With `COc1cc(Br)c(S(=O)(=O)Cc2ccc(Cl)c(O[C@@H]3CCN(C)C3)c2)cc1OC`, the IC50 on Urotensin-2 receptor [4] is 2000 nM; at Urotensin-2 receptor [7], 4700 nM. Also, the solubility in series [5] and in series [6] was more than 87 µg/mL throughout.
In the case of `COc1cc(Br)c([S+]([O-])Cc2ccc(Cl)c(O[C@@H]3CCN(C)C3)c2)cc1OC` (stereo partly drawn), on Urotensin-2 receptor [1], the IC50 was determined as 245 nM. The hepatic extraction ratio in series [3] stood at 0.72.
For `COc1cc(Br)c(SCc2ccc(Cl)c(O[C@@H]3CCN(C)C3)c2)cc1OC` the same measures were 440 nM and 0.76.
With `COc1cc(Br)c(CNc2ccc(Cl)c(O[C@@H]3CCN(C)C3)c2)cc1OC`, the IC50 at Urotensin-2 receptor [1] was 237 nM; on Urotensin-2 receptor [2], 1330 nM. Besides, the hepatic extraction ratio in series [3] came to 0.28.
For `COc1cc(Br)c(CNc2ccc(Cl)c(O[C@H]3CCN(C)C3)c2)cc1OC` the same measures were 1350 nM, 1450 nM and 0.36.
With `COc1cc(Br)c(CNc2ccc(Cl)c(OCCN(C)C)c2)cc1OC`, the IC50 came out at 1200 nM on Urotensin-2 receptor [1] and 1300 nM at Urotensin-2 receptor [2].
As to `COc1cc(Br)c(CNc2ccc(C(F)(F)F)c(O[C@H]3CCN(C)C3)c2)cc1OC`, the IC50 was 217 nM at Urotensin-2 receptor [1], 191 nM at Urotensin-2 receptor [2], 3900 nM at Urotensin-2 receptor [4] and 6400 nM at Urotensin-2 receptor [7]. Moreover, the solubility in series [5] and in [6] was more than 52 µg/mL each time. Moreover, the hepatic extraction ratio in [3] is 0.43; in series [8], less than 0.06.
With `CN(C)CCOc1cc(NCc2ccccc2)ccc1Cl`, the IC50 on Urotensin-2 receptor [1] was more than 10000 nM.
Turning to `CN(C)CCOc1cc(NCc2ccccc2Br)ccc1Cl`, the IC50 came out at 3500 nM at Urotensin-2 receptor [1] and 6000 nM on Urotensin-2 receptor [2].
Turning to `CN1CC[C@H](Oc2cc(NCc3ccccc3Br)ccc2C(F)(F)F)C1`, the half-inhibitory concentration (IC50) at Urotensin-2 receptor [1] is 821 nM; at Urotensin-2 receptor [2] it was 1870 nM.
Take `CN(C)CCOc1cc(NCc2ccccc2C(F)(F)F)ccc1Cl`: the IC50 at Urotensin-2 receptor [1] is 520 nM; on Urotensin-2 receptor [2], 765 nM.
Taken in the same sequence, the figures for `COc1cccc(CNc2ccc(C(F)(F)F)c(O[C@H]3CCN(C)C3)c2)c1` were 691 nM and 1130 nM.
For `CN1CC[C@H](Oc2cc(NCc3c(Br)ccc4c3OCO4)ccc2C(F)(F)F)C1` the same measures were 620 nM and 1400 nM.
For `CN1CC[C@H](Oc2cc(NCc3cc4c(cc3Br)OCO4)ccc2C(F)(F)F)C1` the same measures were 450 nM and 950 nM.
For `CN1CC[C@H](Oc2cc(NCc3cccs3)ccc2C(F)(F)F)C1`, the IC50 on Urotensin-2 receptor [1] is 2700 nM; on Urotensin-2 receptor [2], 2000 nM.
For `COc1cc(Br)c(S(=O)(=O)Nc2ccc(C(F)(F)F)c(OCCN(C)C)c2)cc1OC` the same measures were 134 nM and 100 nM.
For `COc1cc(Br)c(S(=O)(=O)Nc2ccc(C(F)(F)F)c(OCCN3CCOCC3)c2)cc1OC`, the IC50 at Urotensin-2 receptor [1] amounted to 6200 nM.
Still for that read-out and setting: the figure for `COc1cc(Br)c(S(=O)(=O)Nc2ccc(C(F)(F)F)c(OCCN3CCN(C)CC3)c2)cc1OC` is 840 nM.
For `COc1cc(Br)c(S(=O)(=O)Nc2ccc(C(F)(F)F)c(OC[C@H]3CCCN3C)c2)cc1OC`, the results for the IC50 on Urotensin-2 receptor [1] and at Urotensin-2 receptor [2] were 800 nM and 350 nM, respectively.
`COc1cc(Br)c(S(=O)(=O)Nc2ccc(C(F)(F)F)c(OC[C@@H]3CCCN3C)c2)cc1OC`: on Urotensin-2 receptor [1], the IC50 amounted to 2100 nM.
Same read-out and setting: to `COc1cc(Br)c(S(=O)(=O)Nc2ccc(C(F)(F)F)c(F)c2)cc1OC` belongs more than 10000 nM.
Consider `Cc1cc(NC(=O)NCCN2CCC(O)(Cc3ccccc3)CC2)c2ccccc2n1` [PALOSURAN], for which the IC50 was less than 5 nM at Urotensin-2 receptor [9] and 39 nM at Urotensin-2 receptor [10]. Besides, the hepatic extraction ratio in [3] worked out at 0.53.
